According to BindingDB's records for doi:10.7270/Q2736PBV (Broad Institute, 2009):

The compounds below were run against T1, Streptokinase A (Streptococcus pyogenes serotype M1, UniProt P10520) (assay: S. pyogenes streptokinase expression inhibitors, potency, dose response, plasminogen activation absorbance, OD405 (AID 1914)).
T1 sequence (P10520 whole entry): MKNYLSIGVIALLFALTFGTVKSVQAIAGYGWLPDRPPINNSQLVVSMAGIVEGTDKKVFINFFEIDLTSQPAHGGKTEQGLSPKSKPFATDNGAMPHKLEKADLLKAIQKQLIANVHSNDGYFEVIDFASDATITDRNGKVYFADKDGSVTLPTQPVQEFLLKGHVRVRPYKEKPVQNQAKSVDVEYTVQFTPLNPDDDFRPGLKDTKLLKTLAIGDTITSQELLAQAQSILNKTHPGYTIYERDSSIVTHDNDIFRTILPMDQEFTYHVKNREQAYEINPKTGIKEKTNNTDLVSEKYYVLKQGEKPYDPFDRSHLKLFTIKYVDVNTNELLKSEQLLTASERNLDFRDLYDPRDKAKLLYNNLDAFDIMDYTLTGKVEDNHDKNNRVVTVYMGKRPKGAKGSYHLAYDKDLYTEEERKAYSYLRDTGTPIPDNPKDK

COC(=O)C1C(C)=NC2=C(C(=O)c3ccccc32)C1c1ccc(-c2ccc(C(=O)O)cc2)o1 (stereo unspecified) [4-{5-[3-(methoxycarbonyl)-2-methyl-5-oxo-4,5-dihydro-1H-indeno[1,2-b]pyridin-4-yl]-2-furyl}benzoic acid] and CCOC(=O)C1=C(Cc2ccc(CC)cc2)C(=O)c2ccccc2C1=O [(2E,3Z)-2-[ethoxy(hydroxy)methylidene]-3-[(4-ethylphenyl)methylidene]naphthalene-1,4-dione] cannot be ordered by EC50: greater than 150 µM for the first, greater than 150 µM for the second.

CCOc1cc(CN=Nc2cc(C)nc(-n3nc(C)cc3C)n2)ccc1O [4-{[2-(3,5-Dimethyl-pyrazol-1-yl)-6-methyl-pyrimidin-4-yl]-hydrazonomethyl}-2-ethoxy-phenol] and COc1cc(CN=Nc2nc(Nc3ccccc3)nc(-n3nc(C)cc3C)n2)cc(OC)c1OC [6-(3,5-dimethylpyrazol-1-yl)-N4-phenyl-N2-[(3,4,5-trimethoxyphenyl)methylideneamino]-1,3,5-triazine-2,4-diamine] cannot be ordered by EC50: greater than 150 µM for the first, greater than 150 µM for the second.

Going from CC1(C)CC(=O)C(C2C3=C(CC(C)(C)CC3=O)Oc3c(Br)cc(Br)cc32)C(=O)C1 (stereo unspecified) [5,7-bis(bromanyl)-9-(4,4-dimethyl-2-oxidanyl-6-oxidanylidene-cyclohexen-1-yl)-3,3-dimethyl-4,9-dihydro-2H-xanthen-1-one] to Cc1cc(Br)c(OCc2ccc(C(=O)NN=C3CC4CCC=C34)cc2)c(Br)c1 (stereo unspecified) [MLS000335385], the EC50 rises from 24.8 µM to greater than 150 µM.

Cc1ccsc1C1CC(c2cccc(Br)c2)=Nc2ncnn21 (stereo unspecified) [5-(3-bromophenyl)-7-(3-methylthien-2-yl)-4,7-dihydro[1,2,4]triazolo[1,5-a]pyrimidine] and CCc1ccc2c(c1)=C(NNc1nc(-c3ccccc3)cs1)C(=O)N=2 [5-ethyl-1H-indole-2,3-dione 3-[(4-phenyl-1,3-thiazol-2(3H)-ylidene)hydrazone]] cannot be ordered by EC50: greater than 150 µM for the first, greater than 150 µM for the second.

Oc1nc(N=NCc2cccs2)sc1Cc1ccc(Cl)c(Cl)c1 [5-[(3,4-dichlorophenyl)methyl]-2-[2-(thiophen-2-ylmethylidene)hydrazinyl]-4-thiazolone] and Oc1ccccc1CN=Nc1nc(O)c(Cc2ccc(F)cc2)s1 [5-[(4-fluorophenyl)methyl]-2-[2-[(E)-(6-oxidanylidenecyclohexa-2,4-dien-1-ylidene)methyl]hydrazinyl]-1,3-thiazol-4-one] cannot be ordered by EC50: greater than 150 µM for the first, greater than 150 µM for the second.

First: COc1ccc(OC)c(C2CC(C34CC5CC(CC(C5)C3)C4)=NC(=S)N2)c1 (stereo unspecified) [6-Adamantan-1-yl-4-(2,5-dimethoxy-phenyl)-3,4-dihydro-1H-pyrimidine-2-thione]
Second: Cc1ccc(C(=O)CC(=O)C(=O)NC23CC4CC(CC(C4)C2)C3)cc1 [(Z)-N-(1-adamantyl)-4-hydroxy-4-(4-methylphenyl)-2-oxobut-3-enamide]
The EC50 of the first is lower: 14.7 µM for the first, greater than 150 µM for the second. The first is the more potent here.

First: CCOc1cccc(CN=Nc2ccc(S(=O)(=O)N(CC)CC)cn2)c1O [6-[2-[(E)-(5-ethoxy-6-oxidanylidene-cyclohexa-2,4-dien-1-ylidene)methyl]hydrazinyl]-N,N-diethyl-pyridine-3-sulfonamide]
Second: COc1cccc(N=NCc2cccc(Br)c2O)c1 [(6E)-2-bromo-6-[[2-(3-methoxyphenyl)hydrazinyl]methylidene]cyclohexa-2,4-dien-1-one]
The EC50 of the first is higher: greater than 150 µM for the first, 19.6 µM for the second. The second is the more potent here.

First: O=Nc1c(C2C(=O)Nc3cc(Br)ccc32)[nH]c2ccccc12 (stereo unspecified) [6-bromoindirubin-3-oxime]
Second: CC(=O)c1cccc2c1NC(=C1Nc3ccccc3C1=O)C2=O [(2E)-7-ethanoyl-2-(3-oxidanylidene-1H-indol-2-ylidene)-1H-indol-3-one]
The EC50 of the first is 2.6-fold lower: 44.9 µM for the first, 116 µM for the second. The first is the more potent here.

CC(N=Nc1nc2ccc(Cl)cc2o1)c1ccccc1 (stereo unspecified) [6-chloranyl-N-(1-phenylethylideneamino)-1,3-benzoxazol-2-amine] and Cc1ccc(SCC(=O)C(C#N)c2nc3ccccc3s2)cc1 (stereo unspecified) [(2Z)-2-(3H-1,3-benzothiazol-2-ylidene)-3-keto-4-(p-tolylthio)butyronitrile] cannot be ordered by EC50: greater than 150 µM for the first, greater than 150 µM for the second.

O=c1ccc2[n+]([O-])c3ccccc3n(O)c-2c1 [10-hydroxy-5-oxidophenazin-5-ium-2-one] and CC(NNC(=O)c1ccccc1O)=C1C(=O)c2ccccc2C1=O [MLS000523164] cannot be ordered by EC50: greater than 150 µM for the first, greater than 150 µM for the second.

Going from CC(N=Nc1nc(N2CCCCCC2)nc(N2CCCCCC2)n1)c1ccccc1 (stereo unspecified) [(1E)-1-phenylethanone (4,6-diazepan-1-yl-1,3,5-triazin-2-yl)hydrazone] to Clc1ccc(-c2ccc(CN=Nc3cc(N4CCOCC4)nc(N4CCOCC4)n3)o2)cc1 [MLS000527145], the EC50 rises from 5.5 µM to greater than 150 µM.

Compared with N#CC(C(=O)COc1ccccc1)c1nc2ccccc2s1 (stereo unspecified) [(2Z)-2-(3H-1,3-benzothiazol-2-ylidene)-3-keto-4-phenoxy-butyronitrile], N#CC(C(=O)CN1CCN(c2ccccc2F)CC1)c1nc(-c2ccccc2)cs1 (stereo unspecified) [(2Z)-4-[4-(2-fluorophenyl)piperazin-1-yl]-3-oxidanylidene-2-(4-phenyl-3H-1,3-thiazol-2-ylidene)butanenitrile] is higher in EC50: 7.55 µM for the first, greater than 150 µM for the second. The first is the more potent here.

Cc1nc(N=NCc2ccc3c(c2)OCO3)sc1C [(4,5-dimethylthiazol-2-yl)-(piperonylideneamino)amine] and CCOc1ccc(CN=Nc2cc(N3CCOCC3)nc(C)n2)c(O)c1 [(6E)-3-ethoxy-6-[[2-(2-methyl-6-morpholin-4-yl-pyrimidin-4-yl)hydrazinyl]methylidene]cyclohexa-2,4-dien-1-one] cannot be ordered by EC50: greater than 150 µM for the first, greater than 150 µM for the second.

COc1ccc(C(=O)Oc2ccc(C(C)=O)cc2)c(OC)c1 [(4-acetylphenyl) 2,4-dimethoxybenzoate] and Cc1ccc(F)c(NC(=O)C(C#N)C(=O)c2ccc(C(C)(C)C)cc2)c1 (stereo unspecified) [(Z)-2-(4-tert-butylphenyl)carbonyl-3-[(2-fluoranyl-5-methyl-phenyl)amino]-3-oxidanyl-prop-2-enenitrile] cannot be ordered by EC50: greater than 150 µM for the first, greater than 150 µM for the second.

Cc1cc(N=NCc2ccc(O)c(C)c2O)nc(-c2ccccc2O)n1 [(4E)-3-hydroxy-2-methyl-4-[[[(2Z)-6-methyl-2-(6-oxo-1-cyclohexa-2,4-dienylidene)-1H-pyrimidin-4-yl]hydrazo]methylidene]-1-cyclohexa-2,5-dienone] and Oc1ccc(CN=Nc2ccc3ccccc3c2)c(O)c1 [(4E)-3-hydroxy-4-[(2-naphthalenylhydrazo)methylidene]-1-cyclohexa-2,5-dienone] cannot be ordered by EC50: greater than 150 µM for the first, greater than 150 µM for the second.

First: N=C(N)C1=CC(=O)/C(=C/C=c2ccc(=C(N)N)cc2)C=C1 [(4E)-4-[2-[4-[bis(azanyl)methylidene]cyclohexa-2,5-dien-1-ylidene]ethylidene]-3-oxidanylidene-cyclohexa-1,5-diene-1-carboximidamide;2-oxidanylethanesulfonic acid]
Second: O=[N+]([O-])c1cc(Br)c(O)c(CN=Nc2nnnn2-c2cccc3ccccc23)c1 [(6E)-2-bromo-6-[[2-(1-naphthalen-1-yltetrazol-5-yl)hydrazinyl]methylidene]-4-nitrocyclohexa-2,4-dien-1-one]
The EC50 of the first is lower: 20 µM for the first, greater than 150 µM for the second. The first is the more potent here.

COc1ccc(C2=N/C(=C\c3c(C)[nH]c4ccccc34)C(=O)O2)cc1 [(4Z)-2-(4-methoxyphenyl)-4-[(2-methyl-1H-indol-3-yl)methylidene]-1,3-oxazol-5-one] and O=C1N=C(Nc2ccc(F)cc2)SC1=Cc1c[nH]c2ccccc12 [(5Z)-2-[(4-fluorophenyl)amino]-5-(1H-indol-3-ylmethylidene)-1,3-thiazol-4-one] cannot be ordered by EC50: greater than 150 µM for the first, greater than 150 µM for the second.

First: CCCOc1ccc(C(=O)C2C(=O)C(=O)N(c3ccccn3)C2c2ccc(OC)cc2)cc1C (stereo unspecified) [(4Z)-4-[hydroxy-(3-methyl-4-propoxyphenyl)methylidene]-5-(4-methoxyphenyl)-1-(2-pyridinyl)pyrrolidine-2,3-dione]
Second: COc1cccc(CN=Nc2nc(Nc3ccccc3)nc(-n3nc(C)cc3C)n2)c1O [(6E)-6-[[2-[4-(3,5-dimethylpyrazol-1-yl)-6-phenylazanyl-1,3,5-triazin-2-yl]hydrazinyl]methylidene]-2-methoxy-cyclohexa-2,4-dien-1-one]
The EC50 of the first is lower: 103 µM for the first, greater than 150 µM for the second. The first is the more potent here.

C=CCN1C(=O)NC(=O)C(=C(CC)Nc2ccc(N(C)C)cc2)C1=O [(5E)-5-[1-[4-(dimethylamino)anilino]propylidene]-1-prop-2-enyl-1,3-diazinane-2,4,6-trione] and CC(C)CN1C(=O)/C(=N\NC(=O)c2cccc(S(=O)(=O)N3CCCCC3)c2)c2ccccc21 [MLS000417389] cannot be ordered by EC50: greater than 150 µM for the first, greater than 150 µM for the second.

COc1cccc(CN=Nc2cc(N3CCOCC3)ncn2)c1O [(6E)-2-methoxy-6-[[N'-(6-morpholinopyrimidin-4-yl)hydrazino]methylene]cyclohexa-2,4-dien-1-one] and CCOc1ccc2[nH]c(=O)c(CN(CC3COCCO3)C(=O)C3CC3)cc2c1 (stereo unspecified) [MLS000031787] cannot be ordered by EC50: greater than 150 µM for the first, greater than 150 µM for the second.

CC(=N)C(C#N)C(=O)CSc1nc2cc(Cl)ccc2c(=O)n1Cc1ccco1 (stereo unspecified) [(E)-3-amino-2-[2-[7-chloro-3-(furan-2-ylmethyl)-4-oxoquinazolin-2-yl]sulfanylacetyl]but-2-enenitrile] and CC(=N)C(C#N)C(=O)CSc1nc2scc(-c3ccccc3)c2c(=O)n1C (stereo unspecified) [(E)-3-azanyl-2-[2-(3-methyl-4-oxidanylidene-5-phenyl-thieno[2,3-d]pyrimidin-2-yl)sulfanylethanoyl]but-2-enenitrile] cannot be ordered by EC50: greater than 150 µM for the first, greater than 150 µM for the second.

CC(C)c1oc(NC(=O)Nc2ccc(Cl)c(Cl)c2)nc1O [MLS000053797] and O=C1C2=C3C(=C/C1=C\NNC(=O)c1ccccc1O)CCCN3CCC2 [MLS000332414] cannot be ordered by EC50: greater than 150 µM for the first, greater than 150 µM for the second.

Going from CCCCCCC1=Cc2c/c(=C3/NN=C(c4ccccc4)O3)c(=O)oc2=CC1=O [MLS000068623] to CCCCCCCCOC(=O)C1C(C)=Nc2nnnn2C1c1cccs1 (stereo unspecified) [MLS000519969], the EC50 falls from greater than 150 µM to 50 µM.
